“Also recorded” adds a separate entry of the source.
Legend:
[1] = test system: Candida albicans strain CAF4-2 biofilms; assay type: cell-based; conditions: for inhibition of metabolic activity by the compound alone (XTT): any concentration tested
Procedure: Specifically, a screen was developed using C. albicans cells treated with miconazole at subinhibitory concentrations, to which candidate potentiator compounds were added. […] In order to make the screen compatible with high-throughput approaches, biofilms were grown in microtiter plates and the reduction of a vital dye XTT, commonly used to monitor yeast viability, was used as the quantitative readout.
Microtiter plate wells were seeded with wild type Candida albicans strain CAF4-2. Biofilms were grown for 48 hrs at 37° C., washed with PBS pH 7.4, and resuspended in a final volume of 100 μl RPMI containing 10 μg/ml miconazole. Individual compounds from ChemBridge DiverSet E (ChemBridge Corp., San Diego, Calif.) were then added at 10 μg/ml to the wells. Plates were incubated for 24 hrs and XTT (Sigma-X4751) was added at 1 mg/ml to each well. After 4 hrs of incubation at 37° C., reduction of XTT was monitored by recording the optical density at 690 nm (subtracted from OD450) with a microtiter plate reader. Hits were identified when XTT reduction was inhibited by more than 30% of the control values.
A checkerboard assay was then performed to examine possible synergy between miconazole and the hits. 100 μg/ml miconazole (2× dilution in each subsequent well, y-axis) and 100 μg/ml compound AC9 (2× dilution, x-axis) were added to mature 48 hr wild type C. albicans biofilms and incubated for an additional 24 hrs in the presence of the drugs. XTT was added to each well at 1 mg/ml and biofilms were incubated at 37° C. for an additional 4 hrs.
As described in Example 2, initially 5,000 compounds of the 16,000 from the ChemBridge library were screened for potentiators of miconazole action against C. albicans biofilms. A larger screen is conducted on the remaining 11,000 compounds from the ChemBridge library. Screening is performed as described in Example 2 using 96-well plates. Candida biofilms are formed by growing cells for 48 hrs at 37° C. in a shaking incubator in 96-well microtiter plates according to standard protocol (Ramage et al., Antimicrob. Agents Chemother. 45:2475-2479 (2001)). […] 10 μg/ml miconazole is added to each well and 10 μg/ml of unique compounds is added to rows 2-11 and the plates are incubated for 24 hrs at 37° C. XTT is then added to each well at 1 mg/ml and the plates are incubated for an additional 4 hrs at 37° C. The amount of XTT converted to dye is quantified with a plate reader by subtracting the optical density at 690 nm from the optical density at 450 nm. […] Positive hits are scored when the optical density of the experimental well is <0.7.

[2] = test system: Mature biofilms of wild type C. albicans; assay: Potentiation of biofilm killing by miconazole, CFU analysis; assay type: cell-based, Candida albicans; conditions: for biofilm killing by the compound alone (CFU): alone: 100 μg/ml miconazole or 200 μg/ml hit compound
Procedure: Next, the same checkerboard assay was repeated to test the ability of the hit compounds to potentiate biofilm killing by miconazole. Mature biofilms of wild type C. albicans were challenged with 100 μg/ml miconazole, 200 μg/ml of the hit compound, or a combination of the two for 24 hrs. Biofilms were then washed, scraped, resuspended in PBS, vortexed for 30 seconds and plated for CFU analysis.

[3] = test system: Biofilms of C. albicans 3153A cells; assay: C. albicans biofilm killing by antifungals, CFU determination; assay type: cell-based, Candida albicans; conditions: for shape of biofilm killing curve: dose-dependent
Procedure: Biofilms of C. albicans 3153A cells were cultured in wells of microtiter plates in RPMI medium for 48 hrs (Ramage et al., Antimicrob. Agents Chemother. 45:2475-2479 (2001)), washed twice in PBS pH 7.4 to remove nonadherent cells, and resuspended in 100 μl RPMI growth medium containing antifungals. After 24 hrs of antifungal challenge, the biofilms and cultures were washed twice, resuspended in 100 μl PBS, scraped, transferred into eppendorf tubes, vortexed and plated for colony forming unit (CFU) determination on YPD medium. […] In parallel, exponentially growing and stationary planktonic cultures were grown for 48 hrs in RPMI medium, and then antifungals were added for 24 hrs. The experiment was performed in triplicate and error bars indicate standard deviation (see FIG. 1).
Biofilms were grown in microtiter plates and were treated with amphotericin B or chlorhexidine (100 μg/ml) for 24 hrs, after which they were washed and vortexed, as discussed above. The cells were then reinoculated into microtiter plates to form new biofilms. The new biofilms, derived from persisters that survived drug treatment, were again treated with the antifungal agents (as discussed above), and the procedure was repeated a total of 3 times. Biofilms were sampled for CFU determination before and after antifungal treatment. The experiment was performed in triplicate.
Tests were also performed to determine if yeast persisters were multidrug tolerant. Mature, 48 hr biofilms of C. albicans were challenged for 24 hrs with 100 μg/ml amphotericin B, 100 μg/ml chlorhexidine, or a combination of these two antifungal agents, using the same procedures discussed above. Biofilms were washed and sampled for CFU determination before and after antifungal treatment, as discussed above.

[4] = test system: biofilm-deficient strains of C. albicans; assay: Persister formation by biofilm-deficient strains (survival to high levels of amphotericin B); assay type: cell-based, Candida albicans
Procedure: (§1) Biofilms of C. albicans 3153A cells were cultured in wells of microtiter plates in RPMI medium for 48 hrs (Ramage et al., Antimicrob. Agents Chemother. 45:2475-2479 (2001)), washed twice in PBS pH 7.4 to remove nonadherent cells, and resuspended in 100 μl RPMI growth medium containing antifungals. After 24 hrs of antifungal challenge, the biofilms and cultures were washed twice, resuspended in 100 μl PBS, scraped, transferred into eppendorf tubes, vortexed and plated for colony forming unit (CFU) determination on YPD medium. […] This could lead to an underestimation of surviving cells by a factor of ≦10. In parallel, exponentially growing and stationary planktonic cultures were grown for 48 hrs in RPMI medium, and then antifungals were added for 24 hrs. The experiment was performed in triplicate and error bars indicate standard deviation (see FIG. 1).
[…] A large panel of biofilm-defective mutants was therefore tested for their ability to produce persisters by measuring survival to high levels of amphotericin B. These mutants were able to adhere to the surface of a microtiter plate, making it possible to assay in the biofilm survival protocol described above. Unexpectedly, all strains appeared to produce essentially normal levels of persisters (Table 1).

[5] = test system: C. albicans 3153A planktonic cultures; assay: Killing of exponentially growing and stationary planktonic cultures, CFU; assay type: cell-based, Candida albicans; conditions: antifungal added for 24 hrs
Procedure: as §1

[6] = mouse; cited from earlier work
C. albicans = assay: MIC; assay type: cell-based, Candida albicans

SMILES: Oc1c(/N=N/c2ccccn2)ccc2ccccc12 [AC9]
- calculated OD value (OD450 minus OD690) of the positive control ([1]; AC9 at 10 μg/ml plus 10 μg/ml miconazole, negative control >1): 0.4
- inhibition of metabolic activity by the compound alone (XTT) [1]: Neither miconazole nor AC9 alone inhibited metabolic activity
- lowest concentration with inhibition of metabolic activity (XTT checkerboard) ([1]; in the presence of 12.5 μg/ml miconazole, 48 hr biofilm, 24 hrs): 3.1 µg/mL
- synergy with miconazole (XTT checkerboard) ([1]; up to 100 μg/ml each, 2x dilutions): clear synergy
- rank among the hits in the XTT reduction inhibition checkerboard assay ([1]; with miconazole): most active compound among the hits
- biofilm killing in the presence of miconazole (CFU) ([2]; 100 μg/ml miconazole + 200 μg/ml compound, 24 hrs): Complete eradication; also recorded: completely eradicated
- biofilm killing by the compound alone (CFU) ([2]; 24 hrs): Neither miconazole nor AC9 alone had any killing activity
- minimal concentration at which the compound potentiates complete killing of C. albicans by miconazole ([2]; with miconazole): 100 µg/mL

SMILES: CC[C@H](C)C[C@H](C)CCCCCCCCC(=O)N[C@H]1C[C@@H](O)[C@@H](NCCN)NC(=O)[C@@H]2[C@@H](O)CCN2C(=O)[C@H]([C@H](O)CCN)NC(=O)[C@H]([C@H](O)[C@@H](O)c2ccc(O)cc2)NC(=O)[C@@H]2C[C@@H](O)CN2C(=O)[C@H]([C@@H](C)O)NC1=O [Caspofungin, caspofungin]
- killing of biofilms ([3]; 48 hr biofilm, 24 hrs antifungal challenge, CFU): ≤ 10 fold

SMILES: C[C@@H]1[C@H](O)[C@@H](C)/C=C/C=C/C=C/C=C/C=C/C=C/C=C/[C@H](O[C@@H]2O[C@H](C)[C@@H](O)[C@H](N)[C@@H]2O)C[C@@H]2O[C@](O)(C[C@@H](O)C[C@@H](O)[C@H](O)CC[C@@H](O)C[C@@H](O)CC(=O)O[C@H]1C)C[C@H](O)[C@H]2C(=O)O [amphotericin B]
- Persisters ([4]; strain 3153A): +++^1 (1-2% survival)
- Persisters ([4]; strain CAI4): +^3 (0.05-0.1% survival)
- Persisters ([4]; strain CJN698): ++ (0.1-1% survival)
- Persisters ([4]; strain CJN702): ++ (0.1-1% survival)
- Persisters ([4]; strain CKY136): +++ (1-2% survival)
- Persisters ([4]; strain CKY138): ++ (0.1-1% survival)
- Persisters ([4]; strain CKY357): ++^2 (0.1-1% survival)
- Persisters ([4]; strain DAY185): ++ (0.1-1% survival)
- Persisters ([4]; strain DAY286): ++ (0.1-1% survival)
- Persisters ([4]; strain GKO9): ++ (0.1-1% survival)
- Persisters ([4]; strain GKO443): ++ (0.1-1% survival)
- Persisters ([4]; strain GKO798): ++ (0.1-1% survival)
- Persisters ([4]; strain GKO814): ++ (0.1-1% survival)
- Persisters ([4]; strain MC191): +++ (1-2% survival)
- Persisters ([4]; strain MC195): + (0.05-0.1% survival)
- Persisters ([4]; strain MC245): ++ (0.1-1% survival)
- shape of biofilm killing curve ([3]; 24 hrs challenge, CFU): biphasic killing
- biofilm cells invulnerable to the drug (persisters) ([3]; higher concentrations, 24 hrs challenge): More than 1%
- killing of exponentially growing and stationary planktonic cells [5]: effectively killed exponentially growing and stationary cells

SMILES: [H]/N=C(\N/C(=N/[H])NCCCCCCNC(=N)NC(=N)Nc1ccc(Cl)cc1)Nc1ccc(Cl)cc1 [chlorhexidine]
- concentration at which killing of persisters was observed ([3]; 24 hrs challenge): above 100 μg/ml
- concentration at which the biofilm was completely sterilized ([3]; 24 hrs challenge): 1000 µg/mL
- shape of biofilm killing curve ([3]; 24 hrs challenge, CFU): biphasic killing
- killing of exponentially growing and stationary planktonic cells [5]: eliminated

SMILES: Clc1ccc(COC(Cn2ccnc2)c2ccc(Cl)cc2Cl)c(Cl)c1 (stereo not shown) [miconazole]
- inhibition of metabolic activity by the compound alone (XTT) [1]: Neither miconazole nor AC9 alone inhibited metabolic activity
- XTT reduction by biofilm ([1]; miconazole alone at 10 μg/ml, 24 hrs): indistinguishable from biofilms with no miconazole
- LD50 [6]: 519 mg/kg
- biofilm killing by the compound alone (CFU) ([2]; 24 hrs): Neither miconazole nor AC9 alone had any killing activity
- MIC of logarithmically growing cells (C. albicans): 0.03 μg/ml
